Measured values from US9163256B2, “Mutant receptors and their use in a nuclear receptor-based inducible gene expression system” (priority 2004, dated 2015).

Experiments:
CfEcR-DEF mutant M219W = CfEcR-DEF mutant M219W (Choristoneura fumiferana, UniProt O77255, M502W); experiment: GAL4-driven luciferase reporter assay in NIH3T3 cells; assay type: cell-based
Method in brief: (§1)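 Mouse NIH3T3 cells were treated with ligand in DMSO, then transfected with GAL4 luciferase reporter (0.16 μg/well) plus mutant CfEcR-DEF receptor constructs (0.04 μg each/well). Cells were kept at 37° C in 5% FBS and lysed 40 hours after ligand addition for dual-luciferase measurement. Fold induction = ligand RLU ÷ DMSO RLU.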

CfEcR-DEF mutant M219K = CfEcR-DEF mutant M219K (Choristoneura fumiferana, UniProt O77255, M502K); experiment: as above; assay type: cell-based
Chain of CfEcR-DEF mutant M219K (P28702 299-449): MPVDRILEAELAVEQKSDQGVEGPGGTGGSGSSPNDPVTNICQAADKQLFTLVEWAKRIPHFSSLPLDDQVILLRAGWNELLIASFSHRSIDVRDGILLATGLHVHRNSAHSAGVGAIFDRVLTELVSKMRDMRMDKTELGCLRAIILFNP
Chain of CfEcR-DEF mutant M219K (O77255 entry or part of it M502K): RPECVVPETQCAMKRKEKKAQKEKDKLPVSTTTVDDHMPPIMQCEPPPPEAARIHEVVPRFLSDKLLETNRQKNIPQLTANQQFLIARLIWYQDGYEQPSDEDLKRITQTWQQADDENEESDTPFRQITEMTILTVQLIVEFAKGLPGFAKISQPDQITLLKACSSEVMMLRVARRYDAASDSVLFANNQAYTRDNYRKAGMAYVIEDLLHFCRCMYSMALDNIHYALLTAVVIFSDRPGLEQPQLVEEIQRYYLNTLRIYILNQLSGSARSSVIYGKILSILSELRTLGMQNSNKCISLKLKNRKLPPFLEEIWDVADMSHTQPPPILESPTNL
Method in brief: as §1

CfEcR-DEF mutant M125N = CfEcR-DEF mutant M125N (Choristoneura fumiferana, UniProt O77255, M408N); experiment: as above; assay type: cell-based
Chain of CfEcR-DEF mutant M125N (O77255 entry or part of it M408N): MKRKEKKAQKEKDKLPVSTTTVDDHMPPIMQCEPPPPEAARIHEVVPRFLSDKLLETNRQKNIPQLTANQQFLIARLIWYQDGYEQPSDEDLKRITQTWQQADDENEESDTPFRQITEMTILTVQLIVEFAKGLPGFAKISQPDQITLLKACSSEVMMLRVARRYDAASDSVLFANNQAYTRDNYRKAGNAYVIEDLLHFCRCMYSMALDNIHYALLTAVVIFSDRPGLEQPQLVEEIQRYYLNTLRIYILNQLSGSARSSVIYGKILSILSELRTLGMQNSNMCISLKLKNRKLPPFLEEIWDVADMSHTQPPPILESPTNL
Chain of CfEcR-DEF mutant M125N (P28702 299-449, further chain): as the sequence (P28702 299-449) above
Method in brief: as §1

CfEcR-DEF mutant W238L = CfEcR-DEF mutant W238L (Choristoneura fumiferana, UniProt O77255, W521L); experiment: as above; assay type: cell-based
Chain of CfEcR-DEF mutant W238L (P28702 299-449): as above
Chain of CfEcR-DEF mutant W238L (O77255 entry or part of it W521L): as the sequence (O77255 entry or part of it M502K) above, with K296M, W315L counted along it
Method in brief: as §1

CfEcR-DEF mutant M125S = CfEcR-DEF mutant M125S (Choristoneura fumiferana, UniProt O77255, M408S); experiment: as above; assay type: cell-based
Chain of CfEcR-DEF mutant M125S (P28702 299-449): as the sequence (P28702 299-449) above
Chain of CfEcR-DEF mutant M125S (O77255 entry or part of it M408S): as the sequence (O77255 entry or part of it M408N) above, with N190S counted along it
Method in brief: as §1

CfEcR-DEF mutant T52G = CfEcR-DEF mutant T52G (Choristoneura fumiferana, UniProt O77255, T335G); experiment: as above; assay type: cell-based
Chain of CfEcR-DEF mutant T52G (O77255 entry or part of it T335G): as the sequence (O77255 entry or part of it M502K) above, with T129G, K296M counted along it
Chain of CfEcR-DEF mutant T52G (P28702 298-449, further chain): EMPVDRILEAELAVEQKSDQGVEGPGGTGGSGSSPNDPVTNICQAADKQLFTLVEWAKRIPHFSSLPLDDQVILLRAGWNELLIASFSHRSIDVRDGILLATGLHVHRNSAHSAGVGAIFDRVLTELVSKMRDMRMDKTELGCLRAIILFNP
Method in brief: as §1

CfEcR-DEF mutant T52W = CfEcR-DEF mutant T52W (Choristoneura fumiferana, UniProt O77255, T335W); experiment: as above; assay type: cell-based
Chain of CfEcR-DEF mutant T52W (O77255 entry or part of it T335W): as the sequence (O77255 entry or part of it M408N) above, with T117W, N190M counted along it
Chain of CfEcR-DEF mutant T52W (P28702 299-449, further chain): as the sequence (P28702 299-449) above
Method in brief: as §1

CfEcR-DEF mutant L223R = CfEcR-DEF mutant L223R (Choristoneura fumiferana, UniProt O77255, L506R); experiment: as above; assay type: cell-based
Chain of CfEcR-DEF mutant L223R (O77255 entry or part of it L506R): as the sequence (O77255 entry or part of it M408N) above, with N190M, L288R counted along it
Chain of CfEcR-DEF mutant L223R (P28702 299-449, further chain): as the sequence (P28702 299-449) above
Method in brief: as §1

CfEcR-DEF mutant L132E = CfEcR-DEF mutant L132E (Choristoneura fumiferana, UniProt O77255, L415E); experiment: as above; assay type: cell-based
Chain of CfEcR-DEF mutant L132E (O77255 entry or part of it L415E): as the sequence (O77255 entry or part of it M502K) above, with L209E, K296M counted along it
Chain of CfEcR-DEF mutant L132E (P28702 298-449, further chain): as the sequence (P28702 298-449, further chain) above
Method in brief: as §1

CfEcR-DEF mutant L223Y = CfEcR-DEF mutant L223Y (Choristoneura fumiferana, UniProt O77255, L506Y); experiment: as above; assay type: cell-based
Chain of CfEcR-DEF mutant L223Y (P28702 299-449): as the sequence (P28702 299-449) above
Chain of CfEcR-DEF mutant L223Y (O77255 entry or part of it L506Y): as the sequence (O77255 entry or part of it M408N) above, with N190M, L288Y counted along it
Method in brief: as §1

CfEcR-DEF mutant M125V = CfEcR-DEF mutant M125V (Choristoneura fumiferana, UniProt O77255, M408V); experiment: as above; assay type: cell-based
Chain of CfEcR-DEF mutant M125V (O77255 entry or part of it M408V): as the sequence (O77255 entry or part of it M408N) above, with N190V counted along it
Chain of CfEcR-DEF mutant M125V (P28702 299-449, further chain): as the sequence (P28702 299-449) above
Method in brief: as §1

CfEcR-DEF mutant M219Y = CfEcR-DEF mutant M219Y (Choristoneura fumiferana, UniProt O77255, M502Y); experiment: as above; assay type: cell-based
Chain of CfEcR-DEF mutant M219Y (P28702 299-449): as above
Chain of CfEcR-DEF mutant M219Y (O77255 entry or part of it M502Y): as the sequence (O77255 entry or part of it M502K) above, with K296Y counted along it
Method in brief: as §1

CfEcR-DEF mutant L223K = CfEcR-DEF mutant L223K (Choristoneura fumiferana, UniProt O77255, L506K); experiment: as above; assay type: cell-based
Chain of CfEcR-DEF mutant L223K (P28702 298-449): as the sequence (P28702 298-449, further chain) above
Chain of CfEcR-DEF mutant L223K (O77255 entry or part of it L506K): as the sequence (O77255 entry or part of it M502K) above, with K296M, L300K counted along it
Method in brief: as §1

CfEcR-DEF mutant L234R = CfEcR-DEF mutant L234R (Choristoneura fumiferana, UniProt O77255, L517R); experiment: as above; assay type: cell-based
Chain of CfEcR-DEF mutant L234R (O77255 entry or part of it L517R): as the sequence (O77255 entry or part of it M502K) above, with K296M, L311R counted along it
Chain of CfEcR-DEF mutant L234R (P28702 299-449, further chain): as the sequence (P28702 299-449) above
Method in brief: as §1

CfEcR-DEF mutant T52M = CfEcR-DEF mutant T52M (Choristoneura fumiferana, UniProt O77255, T335M); experiment: as above; assay type: cell-based
Chain of CfEcR-DEF mutant T52M (O77255 entry or part of it T335M): as the sequence (O77255 entry or part of it M502K) above, with T129M, K296M counted along it
Chain of CfEcR-DEF mutant T52M (P28702 298-449, further chain): as the sequence (P28702 298-449, further chain) above
Method in brief: as §1

CfEcR-DEF mutant L234W = CfEcR-DEF mutant L234W (Choristoneura fumiferana, UniProt O77255, L517W); experiment: as above; assay type: cell-based
Chain of CfEcR-DEF mutant L234W (O77255 entry or part of it L517W): as the sequence (O77255 entry or part of it M502K) above, with K296M, L311W counted along it
Chain of CfEcR-DEF mutant L234W (P28702 299-449, further chain): as the sequence (P28702 299-449) above
Method in brief: as §1

CfEcR-DEF mutant M125G = CfEcR-DEF mutant M125G (Choristoneura fumiferana, UniProt O77255, M408G); experiment: as above; assay type: cell-based
Chain of CfEcR-DEF mutant M125G (P28702 299-449): as above
Chain of CfEcR-DEF mutant M125G (O77255 entry or part of it M408G): as the sequence (O77255 entry or part of it M502K) above, with M202G, K296M counted along it
Method in brief: as §1

CfEcR-DEF mutant W238M = CfEcR-DEF mutant W238M (Choristoneura fumiferana, UniProt O77255, W521M); experiment: as above; assay type: cell-based
Chain of CfEcR-DEF mutant W238M (P28702 299-449): as the sequence (P28702 299-449) above
Chain of CfEcR-DEF mutant W238M (O77255 entry or part of it W521M): as the sequence (O77255 entry or part of it M502K) above, with K296M, W315M counted along it
Method in brief: as §1

[1] = tested on: CfEcR-DEF mutant V107I/Y127E; experiment: as above; assay type: cell-based, Choristoneura fumiferana; parameters: Concentration (mM) at max FI: unit not given here
Procedure: This construct was prepared in the same way as in switch 1.1 above except wild-type CfEcR-DEF was replaced with mutant CfEcR-DEF comprising a ligand binding domain comprising a substitution mutation selected from Table 1 below.
DNAs were transfected into mouse NIH3T3 cells (ATCC) as follows. Standard methods for culture and maintenance of the cells were followed. Cells were harvested and plated 96-well plates at 2,500 cells per well, in 50 μL of growth medium containing 10% fetal bovine serum (FBS). Twenty-four hours later, the cells were treated with 35 μL of serum-free growth medium containing either dimethylsulfoxide (DMSO; control) or a DMSO solution of ligand. The cells were then transfected using Superfect (Qiagen Inc.) transfection reagent. For each well, 0.625 μL of Superfect was mixed with 14.2 μL of serum-free growth medium. 0.16 μg of reporter construct and 0.04 μg of each receptor construct were added to the transfection reagent mix. […]
Reporter Assays: Cells were harvested 40 hours after adding ligands. […] Luciferase activity was measured using Dual-Luciferase reporter assay system from Promega Corporation following the manufacturer's instructions. Fold induction (FI) activities were calculated by dividing relative light units (“RLU”) in ligand treated cells with RLU in DMSO treated cells (untreated control).

[2] = NIH3T3, 40 h, read-out: Rel Max FI
[3] = NIH3T3, 40 h, read-out: Rel MaxFI

Chain of CfEcR-DEF mutant M219W (P28702 299-449): as the sequence (P28702 299-449) above
Chain of CfEcR-DEF mutant M219W (O77255 entry or part of it M502W): as the sequence (O77255 entry or part of it M502K) above, with K296W counted along it

Compound: CCc1c(OC)cccc1C(=O)NN(C(=O)c1cc(C)cc(C)c1)C(C)(C)C [RG-102240, N-(2-ethyl-3-methoxybenzoyl)-N′-(3,5-dimethylbenzoyl)-N′-tert-butylhydrazine]
- EC50 (CfEcR-DEF mutant M219W): 3.35 µM
- Emax (CfEcR-DEF mutant M219W; [2]): 100%
- EC50 (CfEcR-DEF mutant M219K): 2.9 µM
- Emax (CfEcR-DEF mutant M219K; [2]): 100%
- EC50 (CfEcR-DEF mutant M125N): 9.88 µM
- Emax (CfEcR-DEF mutant M125N; [2]): 100%
- EC50 (CfEcR-DEF mutant W238L): 11.1 µM
- Emax (CfEcR-DEF mutant W238L; [2]): 100%
- EC50 (CfEcR-DEF mutant M125S): 12.3 µM
- Emax (CfEcR-DEF mutant M125S; [2]): 100%
- EC50 (CfEcR-DEF mutant T52G): 3.52 µM
- Emax (CfEcR-DEF mutant T52G; [2]): 100%
- EC50 (CfEcR-DEF mutant T52W): 18.3 µM
- Emax (CfEcR-DEF mutant T52W; [2]): 100%
- EC50 (CfEcR-DEF mutant L223R): 8.69 µM
- Emax (CfEcR-DEF mutant L223R; [2]): 100%
- EC50 (CfEcR-DEF mutant L132E): 0.41 µM
- Emax (CfEcR-DEF mutant L132E; [2]): 100%
- EC50 (CfEcR-DEF mutant L223Y): 3.15 µM
- Emax (CfEcR-DEF mutant L223Y; [2]): 100%
- EC50 (CfEcR-DEF mutant M125V): 1.64 µM
- Emax (CfEcR-DEF mutant M125V; [2]): 100%
- EC50 (CfEcR-DEF mutant M219Y): 0.82 µM
- Emax (CfEcR-DEF mutant M219Y; [2]): 100%
- EC50 (CfEcR-DEF mutant L223K): 3.93 µM
- Emax (CfEcR-DEF mutant L223K; [2]): 100%
- EC50 (CfEcR-DEF mutant L234R): 17.1 µM
- Emax (CfEcR-DEF mutant L234R; [2]): 100%
- EC50 (CfEcR-DEF mutant T52M): 6.74 µM
- Emax (CfEcR-DEF mutant T52M; [3]): 100%
- EC50 (CfEcR-DEF mutant L234W): 11.5 µM
- Emax (CfEcR-DEF mutant L234W; [2]): 100%
- EC50 (CfEcR-DEF mutant M125G): 14.2 µM
- Emax (CfEcR-DEF mutant M125G; [2]): 100%
- EC50 (CfEcR-DEF mutant W238M): 10.5 µM
- Emax (CfEcR-DEF mutant W238M; [3]): 100%
- GS-E ligand max FI (relative to DMSO) [1]: 3146
- Concentration (mM) at max FI ([1]; GS-E ligand): 10

Compound: Cc1cc(C)cc(C(=O)N(NC(=O)c2cccc(C(C)C)c2C)C(C)(C)C)c1 [RG-102362, 3,5-Dimethyl-benzoic acid N-tert-butyl-N′-(3-isopropyl-2-methyl-benzoyl)-hydrazide]
- melting point: 182.5 °C
